{
  "source": "paper PMC7694773",
  "about": "“Synthesis, 3D-QSAR, and Molecular Modeling Studies of Triazole Bearing Compounds as a Promising Scaffold for Cyclooxygenase-2 Inhibition” (Pharmaceuticals, 2020)",
  "key": {"bovine COX-1": {"molecular_target": "T1, bovine COX-1 (Ovis aries, UniProt P05979)", "T1 construct": "purchased Cayman Chemical 560131", "T1 sequence (P05979 25-600)": "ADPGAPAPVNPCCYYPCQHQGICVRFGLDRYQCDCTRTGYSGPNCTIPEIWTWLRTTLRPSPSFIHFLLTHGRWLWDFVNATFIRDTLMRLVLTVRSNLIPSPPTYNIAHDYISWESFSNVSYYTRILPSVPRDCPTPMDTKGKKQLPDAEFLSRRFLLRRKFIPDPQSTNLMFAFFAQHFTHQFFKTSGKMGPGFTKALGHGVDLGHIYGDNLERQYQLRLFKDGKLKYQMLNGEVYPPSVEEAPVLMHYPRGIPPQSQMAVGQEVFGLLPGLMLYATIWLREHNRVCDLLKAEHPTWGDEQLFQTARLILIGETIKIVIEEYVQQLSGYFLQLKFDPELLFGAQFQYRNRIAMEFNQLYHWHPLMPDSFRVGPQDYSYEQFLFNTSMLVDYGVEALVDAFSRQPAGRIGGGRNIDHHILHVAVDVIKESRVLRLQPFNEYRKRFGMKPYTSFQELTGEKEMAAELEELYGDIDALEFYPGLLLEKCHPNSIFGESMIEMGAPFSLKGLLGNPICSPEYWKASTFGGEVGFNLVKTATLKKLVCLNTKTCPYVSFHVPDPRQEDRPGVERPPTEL", "test": "In vitro COX-1 inhibition, enzyme immunoassay kit (Cayman item no. 560131)", "type": "biochemical", "settings": "mean of two determinations", "source_text": "(§1) The in vitro COX-1/COX-2 isozyme inhibition studies measure the ability of tested compounds to inhibit bovine COX-1 and human recombinant COX-2 using an enzyme immunoassay (COX inhibitor screening assay kit, item no. 560131) according to the manufacturer’s instructions. […]."}, "human recombinant COX-2": {"molecular_target": "T2, human recombinant COX-2 (Homo sapiens, UniProt P35354)", "T2 construct": "purchased Cayman Chemical 560131", "T2 sequence (P35354 18-604)": "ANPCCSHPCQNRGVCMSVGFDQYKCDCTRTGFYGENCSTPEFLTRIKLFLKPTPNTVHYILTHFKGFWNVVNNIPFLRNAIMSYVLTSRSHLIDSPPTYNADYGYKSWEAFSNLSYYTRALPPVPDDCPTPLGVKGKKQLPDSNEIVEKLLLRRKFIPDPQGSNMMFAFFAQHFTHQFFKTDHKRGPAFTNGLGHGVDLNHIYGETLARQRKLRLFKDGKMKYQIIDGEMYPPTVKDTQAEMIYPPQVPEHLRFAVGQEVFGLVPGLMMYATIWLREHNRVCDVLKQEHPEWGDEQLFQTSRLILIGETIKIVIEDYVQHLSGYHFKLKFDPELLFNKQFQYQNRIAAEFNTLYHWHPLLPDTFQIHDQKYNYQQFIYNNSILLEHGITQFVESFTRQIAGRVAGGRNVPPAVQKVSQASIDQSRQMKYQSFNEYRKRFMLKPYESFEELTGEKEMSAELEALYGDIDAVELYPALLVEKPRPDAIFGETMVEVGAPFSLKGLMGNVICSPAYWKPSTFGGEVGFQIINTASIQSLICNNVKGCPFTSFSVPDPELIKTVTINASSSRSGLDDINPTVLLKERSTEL", "test": "In vitro COX-2 inhibition, enzyme immunoassay kit (Cayman item no. 560131)", "type": "biochemical", "source_text": "as §1"}, "egg albumin": {"molecular_target": "T3, egg albumin (Gallus gallus, UniProt P01012)", "T3 sequence (P01012 1-386)": "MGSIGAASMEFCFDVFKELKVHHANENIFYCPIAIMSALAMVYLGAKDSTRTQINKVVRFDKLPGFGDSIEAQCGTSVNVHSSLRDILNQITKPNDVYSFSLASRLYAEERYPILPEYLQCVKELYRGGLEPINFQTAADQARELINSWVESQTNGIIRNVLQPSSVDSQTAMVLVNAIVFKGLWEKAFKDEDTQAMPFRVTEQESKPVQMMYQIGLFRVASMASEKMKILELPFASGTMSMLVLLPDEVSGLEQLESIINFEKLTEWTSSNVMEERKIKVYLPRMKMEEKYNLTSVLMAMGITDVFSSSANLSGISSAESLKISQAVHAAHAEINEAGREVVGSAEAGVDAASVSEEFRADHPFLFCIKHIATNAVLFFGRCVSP", "test": "In situ anti-inflammatory assay: inhibition of protein (albumin) denaturation", "protocol": "Protein denaturation is used for the evaluation of anti-inflammatory activity. In this methodology, generally, tertiary and secondary protein structures will typically be destroyed by the application of an external molecule or stress. The biological function of most bio-proteins is lost if it is denatured. It is well reported that a basis of inflammation is denaturation of protein.\nThe reaction mixture is molecules with serial dilutions (1000, 100, 10, 1, 0.1 µM), phosphate buffered saline (PBS; pH 6.4), and egg albumin. The control used was double distilled water (equal volume). […] After attaining ambient temperature, the absorbance of samples was measured spectrophotometrically at 660 nm using vehicle as blank. […] The experiment was performed in triplicate. Percent inhibition of protein denaturation was calculated using the Equation Inhibition (%) of protein denaturation inhibition (%) = (AC − AS)/AC × 100 where AC: absorbance of control, AS: absorbance of sample."}},
  "note": "Where “and” joins values, the source holds several entries; their conditions need not be identical. Equal values may be shown once. Read-outs that look alike come from different tables or passages of the source.",
  "data": [
    {"smiles": "COc1ccc(C=Nn2c(S)nnc2COc2ccc3ccccc3c2)cc1", "note": "[Compound 9d, 4-((4-methoxybenzylidene)amino)-5-((naphthalen-2-yloxy)methyl)-4H-1,2,4-triazole-3-thiol]", "values": [
      {"measurement": "IC50", "setting": "bovine COX-1", "value": 7.97, "unit": "µM"},
      {"measurement": "COX-2 S.I. (selectivity index, COX-1 IC50/COX-2 IC50)", "setting": "human recombinant COX-2", "value": 53.1},
      {"measurement": "IC50", "setting": "human recombinant COX-2; human recombinant COX-2, mean of two determinations, read-out: IC50 COX-2", "value": 0.15, "unit": "µM"},
      {"measurement": "IC50", "setting": "human recombinant COX-2; pIC50 = −Log (IC50) of the COX-2 IC50, read-out: Activity (experimental pIC50, COX-2) (converted)", "value": 0.15, "unit": "µM"},
      {"measurement": "LogIC50 protein denaturation", "setting": "egg albumin; GraphPad prism curve fit, IC50 in µM (Figure 3)", "value": 0.9126},
      {"measurement": "IC50", "setting": "egg albumin; non-linear regression, sigmoidal dose-inhibition fit, GraphPad prism", "value": "8.17 µM and 8.18 µM"},
      {"measurement": "inhibition at 1000 µM", "setting": "egg albumin; protein denaturation, conc. 1000 µM, three replicates, read-out: % of inhibition ± SEM at conc. 1000", "value": 51, "unit": "%"},
      {"measurement": "% of inhibition ± SEM at conc. 0.1", "setting": "egg albumin; protein denaturation, conc. 0.1 (µM), three replicates", "value": "8.97±0.97", "unit": "%"},
      {"measurement": "% of inhibition ± SEM at conc. 1", "setting": "egg albumin; protein denaturation, conc. 1 (µM), three replicates", "value": "18.95±1.04", "unit": "%"},
      {"measurement": "% of inhibition ± SEM at conc. 10", "setting": "egg albumin; protein denaturation, conc. 10 (µM), three replicates", "value": "31.86±0.96", "unit": "%"},
      {"measurement": "% of inhibition ± SEM at conc. 100", "setting": "egg albumin; protein denaturation, conc. 100 (µM), three replicates", "value": "49.08±1.05", "unit": "%"},
      {"measurement": "melting point", "value": "177 to 178", "unit": "°C"}
    ]}
  ]
}
